Measurements taken from patent publication US10245240B2, “Treatment of prostate carcinoma” (Pellficure Pharmaceuticals, Inc., priority 2010, dated 2019).

Tests used:
[1] = test system: LNCaP hormone-sensitive human prostate cancer cells; assay: Dose response plumbagin in human LNCaP cells, cell counting in absence of DHT; format: cell-based; conditions: no DHT; for % control / cell number/20 mean / cell number/20 trial 1 / cell number/20 trial 2 / cell number/20 trial 3 / cell number/20 trial 4: 24 hours
Protocol: LNCaP hormone-sensitive human prostate cancer cells were placed in androgen withdrawal medium in the absence of DHT (dihydrotestosterone). The absence of DHT simulates surgical or chemical castration. The androgen withdrawal medium was phenol-red free DMEM high-glucose containing 10% charcoal-treated Fetal Bovine Serum.
Plumbagin was added at the indicated concentrations in Table 6 for 24 hours. Cells were trypsinized and counted using a Cell Coulter counter Multisizer II, which excludes debris. The results in Table 6 represent cell numbers as percent of control (in which the number of cells in the absence of drug is 100%). FIG. 8 illustrates the effect of plumbagin in human LNCaP cells.

PTEN-P2/GFP tumor = assay: In vivo effect of plumbagin added two weeks after castration, pseudo-orthotopic chamber model (Example 6); set-up: species or system nude mice; conditions: daily plumbagin ip 2 mg/kg, from two weeks after castration
Protocol: Intravital microscopy: Fluorescence microscopy is performed using a Mikron Instrument Microscope equipped with epi-illuminator and video-triggered stroboscopic illumination from a xenon arc (MV-7600, EG&G). A silicon intensified target camera (SIT68, Dage-MTI) is attached to the microscope. A Hamamatsu image processor (Argus 20) with firmware version 2.50 (Hamamatsu Photonic System) is used for image enhancement and for the capture of images to a computer. A Zeiss Plan Neofluar 1.25×/0.035 objective is used to obtain an over-view of the chamber and to determine tumor size. A Zeiss A-Plan 10×/0.25 objective is used to capture images for calculation of vascular parameters. A Zeiss Achroplan 20×/0.5 W objective is used to capture images for calculation of mitotic and apoptotic indices. Our system permits evaluation of the following parameters.
Mitotic and Apoptotic Indices: At each time point, two peripheral and two central ×20 fields of the tumor are captured with a FITC filter and an integrated frame grabber. Only mitotic figures in metaphase-telophase (MI) are included in the mitotic indices to exclude the potential artifact of nuclear membrane distortion. Apoptotic/Pyknotic nuclei are defined as H2B-GFP labeled nuclei with a cross sectional area <30 μm^2. Nuclear karyorrhexis (NK), easily distinguishable by the vesicular nuclear condensation and brightness of H2B-GFP, is included within this apoptotic indices.
Platinum chambers were placed in the dorsal skinfold of nude mice by surgery. Two days later, minced prostate tissue from BalbC mice (syngeneic) was grafted into the chambers and allowed to vascularize for 7 to 10 days. Small tumor cells spheroids were implanted into each chamber. Tumor cells PTEN-P2 stably transfected with H2B-GFP fusion protein (PTEN-P2/GFP) were used in these experiments. The animals were surgically castrated about three weeks after implantation to inhibit androgen production. Surgical castration induces androgen deprivation, and is known in the art to effectively mimic clinical hormone therapy. Two weeks after castration, the mice were treated daily with plumbagin at 2 mg/kg ip.

## CC1=CC(=O)c2c(O)cccc2C1=O [Plumbagin, 5-hydroxy-2-methylnaphthalene-1,4-dione]
[1]; 0.5 μM plumbagin
  % control: 84.13%
  cell number/20 mean: 6335
  cell number/20 trial 1: 6422
  cell number/20 trial 2: 5989
  cell number/20 trial 3: 6453
  cell number/20 trial 4: 6475
[1]; 1 μM plumbagin
  % control: 90.95%
  cell number/20 mean: 6849
  cell number/20 trial 1: 6997
  cell number/20 trial 2: 7139
  cell number/20 trial 3: 6769
  cell number/20 trial 4: 6490
[1]; 2 μM plumbagin
  % control: 66.23%
  cell number/20 mean: 4987
  cell number/20 trial 1: 5324
  cell number/20 trial 2: 5282
  cell number/20 trial 3: 4522
  cell number/20 trial 4: 4821
[1]; 4 μM plumbagin
  % control: 42.21%
  cell number/20 mean: 3179
  cell number/20 trial 1: 3005
  cell number/20 trial 2: 3082
  cell number/20 trial 3: 3327
  cell number/20 trial 4: 3300
[1]; 6 μM plumbagin
  % control: 18.50%
  cell number/20 mean: 1393
  cell number/20 trial 1: 1396
  cell number/20 trial 2: 1500
  cell number/20 trial 3: 1323
  cell number/20 trial 4: 1352
[1]; 8 μM plumbagin
  % control: 3.93%
  cell number/20 mean: 296
  cell number/20 trial 1: 330
  cell number/20 trial 2: 283
  cell number/20 trial 3: 284
  cell number/20 trial 4: 287
[1]; in vitro, LNCaP cells
  efficiency of plumbagin with simulated castration versus castration alone: more efficient than treatment castration alone
PTEN-P2/GFP tumor
  apoptosis (AP) in tumor: increasing apoptosis
  efficiency of combination of plumbagin with castration versus castration alone: more efficient in vivo than castration alone
  mitosis (MI) in tumor: mitosis increased
  tumor size, castration with plumbagin: significant decreases in tumor size
